Assay: mn = molality of the nth substance listed, in mol/kg
Details: 101 kPa, Liquid; for viscosity: Capillary tube (Ostwald / Ubbelohde) method; for mass density: Vibrating tube method

Cc1c(N)cccc1N [2,6-diaminotoluene] + CCCO
Details	mass density, 293.15 K [kg/m3]	mass density, 303.15 K [kg/m3]	mass density, 313.15 K [kg/m3]	mass density, 323.15 K [kg/m3]	mass density, 333.15 K [kg/m3]	viscosity, 293.15 K [mPa·s]	viscosity, 303.15 K [mPa·s]	viscosity, 313.15 K [mPa·s]	viscosity, 323.15 K [mPa·s]	viscosity, 333.15 K [mPa·s]
m1 = 0.0501	805.5	797.18	789	780.63	772.03	2.19	1.709	1.348	1.074	0.864
m1 = 0.0997	807.1	798.78	790.58	782.21	773.6	2.209	1.72	1.355	1.079	0.869
m1 = 0.1498	808.7	800.36	792.16	783.77	775.16	2.226	1.734	1.365	1.086	0.874
m1 = 0.1995	810.26	801.92	793.7	785.32	776.68	2.245	1.744	1.372	1.092	0.878
m1 = 0.2499	811.81	803.46	795.23	786.83	778.21	2.268	1.759	1.383	1.099	0.883
m1 = 0.2994	813.34	804.95	796.73	788.33	779.69	2.282	1.77	1.391	1.106	0.888
m1 = 0.3496	814.83	806.45	798.21	789.79	781.15	2.305	1.789	1.401	1.112	0.893

Cc1ccc(N)cc1N [4-methyl-1,3-benzendiamine] + CCCO
Details	mass density, 293.15 K [kg/m3]	mass density, 303.15 K [kg/m3]	mass density, 313.15 K [kg/m3]	mass density, 323.15 K [kg/m3]	mass density, 333.15 K [kg/m3]	viscosity, 293.15 K [mPa·s]	viscosity, 303.15 K [mPa·s]	viscosity, 313.15 K [mPa·s]	viscosity, 323.15 K [mPa·s]	viscosity, 333.15 K [mPa·s]
m1 = 0.05	805.47	797.13	788.94	780.57	771.96	2.189	1.71	1.348	1.074	0.864
m1 = 0.1003	807.05	798.71	790.49	782.12	773.5	2.206	1.723	1.354	1.079	0.868
m1 = 0.15	808.57	800.22	792.01	783.62	774.99	2.225	1.735	1.365	1.086	0.875
m1 = 0.1997	810.04	801.7	793.49	785.09	776.45	2.247	1.748	1.372	1.091	0.878
m1 = 0.2499	811.49	803.17	794.96	786.55	777.91	2.267	1.759	1.382	1.099	0.883
m1 = 0.2999	812.87	804.6	796.4	787.99	779.34	2.294	1.774	1.389	1.106	0.889
m1 = 0.3496	814.24	805.98	797.83	789.4	780.74	2.315	1.79	1.401	1.112	0.893
m1 = 0.3994	815.57	807.34	799.22	790.77	782.12	2.338	1.806	1.412	1.117	0.899

Cc1ccc(N)cc1N [4-methyl-1,3-benzendiamine] + CCO
Details	mass density, 293.15 K [kg/m3]	mass density, 303.15 K [kg/m3]	mass density, 313.15 K [kg/m3]	mass density, 323.15 K [kg/m3]	mass density, 333.15 K [kg/m3]	viscosity, 293.15 K [mPa·s]	viscosity, 303.15 K [mPa·s]	viscosity, 313.15 K [mPa·s]	viscosity, 323.15 K [mPa·s]	viscosity, 333.15 K [mPa·s]
m1 = 0.0503	791.4	782.79	774	765.08	755.96	1.196	0.982	0.815	0.68	0.571
m1 = 0.0999	793.18	784.54	775.74	766.82	757.7	1.208	0.995	0.821	0.685	0.576
m1 = 0.1497	794.92	786.27	777.46	768.52	759.41	1.224	1.004	0.829	0.691	0.579
m1 = 0.1994	796.64	787.95	779.14	770.21	761.1	1.236	1.015	0.836	0.696	0.583
m1 = 0.2494	798.32	789.63	780.81	771.88	762.76	1.252	1.027	0.845	0.703	0.588
m1 = 0.2997	799.96	791.27	782.46	773.52	764.42	1.265	1.037	0.853	0.708	0.592
m1 = 0.3496	801.58	792.88	784.07	775.13	766.03	1.28	1.046	0.861	0.714	0.597
m1 = 0.3994	803.15	794.44	785.66	776.73	767.62	1.293	1.059	0.868	0.72	0.601
m1 = 0.4496	804.71	796.01	787.24	778.31	769.19	1.31	1.068	0.877	0.727	0.607
m1 = 0.4995	806.25	797.53	788.77	779.84	770.7	1.323	1.079	0.883	0.731	0.61
m1 = 0.5492	807.75	799.06	790.28	781.37	772.2	1.34	1.09	0.893	0.739	0.616
m1 = 0.5989	809.18	800.53	791.76	782.81	773.66	1.353	1.101	0.899	0.743	0.619
